Results reported in patent publication US5215889A, “Catalytic and reactive polypeptides and methods for their preparation and use” (The Regents of the University of California, priority 1989, dated 1993).

How the values were obtained:
Test in all cases: Hydrolysis of DNP coumarin esters 1-3 by Fv
Format in all cases: biochemical, murine
[1] = test system: MOPC315 Fv variant Fv(Y34FL), Tyr 34L to Phe; conditions: pH 6.8
Protocol: (§1) FIG. 22 is a Lineweaver-Burke plot of initial rate data obtained for the hydrolysis of 1 as described in Example 6 of the Experimental section herein. Four μl of a 100-fold concentrated solution of substrate 1 in DMSO was added to the 400 μl of Fv (115 nM) in buffer A while monitoring 7-hydroxycoumarin fluorescence at 25° C. (excitation:355nm; emission: 457 nm). A standard of 7-hydroxycoumarin was added at the completion of each assay to assess quenching of coumarin fluorescence by DNP at high substrate concentrations. The buffer background rate was subtracted from the initial rates. Each point represents the average velocity of at least duplicate experiments. Factor X, Factor Xa, or Russell's viper venom had no hydrolytic activity towards 1.
(§2) The ability of wild type and mutant Fvs to hydrolyze esters 1-3 was assayed by measuring the rate of coumarin release fluorimetrically at pH 6.8 (Pollack et al. (1988) supra; Pollack (1989) supra). […] Under these conditions, Fv(Y34HL) turns over at least 11 times and still retains 44% of its activity. The loss of activity is likely due to the accumulation of the inhibitory reaction product 8. […] Ester 2 was a poor substrate (kcat (2)=0.015 min^-1); and the hydrolysis of 3 was not accelerated (kcat (3)<0.005 min^-1). […] The initial rate of hydrolysis of 1 by Fv(Y34HL) at pH 6.8 is approximately 45-fold faster than the reaction with either […] (Table 2). At pH 8.7, the reactivity of Fv(Y34HL) and Fv(315) both increase, but differentially (v[Fv(Y34HL ]/v[Fv(315)]=3.3, at 10 μM 1). Under these conditions Fv(Y34HL) catalytically hydrolyzes 1 while Fv(315) reacts stoichiometrically. The increased reactivity of Fv(315) at higher pH may be due to deprotonation of the tyrosine hydroxyl and subsequent transesterification to form a relatively stable phenol ester.

[2] = target: T1, MOPC315 Fv variant Fv(Y34HL), Tyr 34L to His (Mus musculus, UniProt P01729+P01822, Y53H); conditions: pH 6.8; SE (n = 3)
T1 construct: Antibody-derived VH was prepared by denaturing ion exchange chromatography of authentic MOPC315 Fv, obtained from pepsin digestion of purified IgA; lambda cII fusion with Factor Xa site (IleGluGlyArg) (N, cleaved yes); made in house; host or cells: VL: E. coli MZ1 (cII fusion, inclusion bodies); VH: pepsin-cleaved MOPC315 IgA from mouse ascites
Protocol: as §1, §2

[3] = target: T2, MOPC315 Fv, wild type, Fv(315) (Mus musculus, UniProt P01729+P01822); conditions: pH 6.8
T2 construct: The Fv fragment (26 kD) is a heterodimer consisting of two peptides, VH (14 kD) and VL (12 kD); made in house; host or cells: MOPC315 myeloma ascites (Balb/c mice), IgA cleaved with pepsin
Protocol: as §1, §2

T1 sequence (P01729 with tags, fused parts or gaps Y53H): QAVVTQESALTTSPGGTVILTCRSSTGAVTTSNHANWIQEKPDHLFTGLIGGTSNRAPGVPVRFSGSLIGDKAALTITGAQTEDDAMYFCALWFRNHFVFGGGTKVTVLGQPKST
T1 sequence (P01822 19-137): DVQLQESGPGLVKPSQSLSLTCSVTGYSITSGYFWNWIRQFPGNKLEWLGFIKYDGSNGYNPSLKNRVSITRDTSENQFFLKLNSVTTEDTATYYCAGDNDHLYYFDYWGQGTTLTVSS
T2 sequence (P01822 19-137): as above
T2 sequence (P01729 20-129): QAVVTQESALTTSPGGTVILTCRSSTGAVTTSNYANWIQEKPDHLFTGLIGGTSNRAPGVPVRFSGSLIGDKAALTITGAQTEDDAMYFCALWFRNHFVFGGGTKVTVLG

O=C(CCCCNc1ccc([N+](=O)[O-])cc1[N+](=O)[O-])Oc1ccc2ccc(=O)oc2c1 [compound 1, 7-hydroxycoumarin ester of 5-(2,4-dinitrophenyl)-aminopentanoic acid]
kcat (Table 2, Fv(Y34FL)) [1]: 0.004 min
kcat (Table 2, Fv(Y34HL)) [2]: 0.18 ± .03 min
kcat (Table 2, Fv(315)) [3]: 0.004 min
